Measured values reported in the NIST ThermoML archive (doi:10.1016/j.jct.2016.04.008).

Conditions: Metastable liquid; for mass density: 100 kPa, Buoyancy - hydrostatic balance with magnetic suspension - one sinker

CCCn1cc[n+](C)c1.F[B-](F)(F)F [1-propyl-3-methylimidazolium tetrafluoroborate]
Conditions	mass density [kg/m3]
263.48 K	1263.82
267.76 K	1260.36
273.92 K	1255.4
278.64 K	1251.98
283.36 K	1248.34
288.62 K	1245.07
293.07 K	1241.48
298.18 K	1237.91
303.09 K	1234.13
308.11 K	1230.24
313.13 K	1226.49
318 K	1222.86
322.91 K	1219.26
328.37 K	1215.54
333.47 K	1211.69
337.99 K	1208.71
342.79 K	1205.15
348.01 K	1201.38
353 K	1198.22
359.33 K	1194.13
363.9 K	1190.61

surface tension liquid-gas [mN/m]
Conditions	Ring tensiometer	Willhelmy plate method
273.75 K	–	50.71
273.79 K	51.33	–
278.5 K	–	50.51
278.59 K	51.07	–
283.29 K	–	50.25
283.35 K	50.8	–
288.51 K	–	49.99
288.6 K	50.51	–
293.05 K	–	49.65
293.08 K	50.23	–
298.18 K	49.96	–
298.19 K	–	49.5
303.09 K	49.6	49.11
308.05 K	–	48.73
308.08 K	49.16	–
313.06 K	–	48.58
313.09 K	49.02	–
318 K	48.72	48.32
322.85 K	–	47.95
322.87 K	48.32	–
328.24 K	–	47.64
328.31 K	47.95	–
333.32 K	–	47.28
333.5 K	47.54	–
338.08 K	–	47.1
338.14 K	47.43	–
342.74 K	–	46.86
342.81 K	46.8	–
348.07 K	46.79	–
348.15 K	–	46.48
353.02 K	46.07	–
353.21 K	–	46.16
358.98 K	45.94	–
359.05 K	–	45.89
362.96 K	–	45.51
363.8 K	45.67	–
